The values below come from patent publication US6410573B1, “2,5-substituted benzolsulfonylureas and thioureas methods for the production thereof use thereof and pharmaceutical preparations containing the same” (Aventis Pharma Deutschland GmbH, priority 1998, dated 2002).

The melting point is the temperature, or range, at which the solid turns liquid.

Data set [1] concerns papillary muscle of the guinea pig. Put plainly: Action potential duration (APD90) in the papillary muscle of the guinea pig, shortened by rilmakalim (HOE 234). The data set is classed as cell-based. Conditions: test substance 2 μmol/l, 60 min after its addition; rilmakalim (HOE 234) 1 μg/ml given 30 min before; starting values 165-191, after HOE 234 alone 18-37; 37° C., 1 Hz. An excerpt:
Test 1: Action potential duration in the papillary muscle of the guinea pig
ATP deficiency states, such as are observed during ischemia in the cardiac muscle cell, lead to a reduction of the action potential duration. They are regarded as one of the causes of so-called reentry arrhythmias, which can cause sudden heart death. The opening of ATP-sensitive potassium channels by the lowering of ATP (adenosine triphosphate) is regarded as causing this.
A standard microelectrode technique was employed for the measurement of the action potential in the papillary muscle of the guinea pig. For this guinea pigs of both sexes were killed by a blow to the head, the hearts were removed, the papillary muscles were separated out and suspended in an organ bath. The organ bath was irrigated with Ringer's solution (136 mmol/l of NaCl, 3.3 mmol/l of KCl, 2.5 mmol/l of CaCl2, 1.2 mmol/l of KH2PO4, 1.1 mmol/l of MgSO4, 5.0 mmol/l of glucose, 10.0 mmol/l of N-(2-hydroxyethyl)piperazine-N′-(2-ethanesulfonic acid) (HEPES), pH adjusted to 7.4 with NaOH) and aerated with 100% oxygen at a temperature of 37° C. The muscle was stimulated by means of an electrode using squarewave impulses of 1 V and 1 ms duration and a frequency of 1 Hz. The action potential was derived and recorded by means of a glass microelectrode inserted intracellularly, which is filled with 3 mol/l of KCl solution. The substance to be tested was added to the Ringer's solution in a concentration of 2 μmol/l. The action potential was amplified using an amplifier from Hugo Sachs (March-Hugstetten, Germany) and stored and analyzed by means of a computer. The duration of the action potential was determined at a degree of repolarization of 90% (APD90). The action potential reduction was produced by addition of a solution of the potassium channel opener rilmakalim (HOE 234) (W. Linz, E. Klaus, U. Albus, R. H. A. Becker, D. Mania, H. C. Englert, B. A. Schölkens, Arzneimittelforschung/Drug Research, 42 (II) (1992) 1180-1185) (rilmakalim concentration 1 μg/ml). 30 minutes after the administration of rilmakalim, the action potential duration APD90 was recorded. The test substance was then added and the action potential duration APD90, which was extended again, was recorded after a further 60 minutes. The test substances were added to the bath solution as stock solutions in propanediol.

Data set [2] relates to RINm5F cells. Put plainly: Membrane potential on isolated β cells (whole-cell patch clamp, RINm5F cells). The data set is classed as cell-based. Conditions: 1 μmol/l test substance, diaxozide 100 μmol/l in bath, 34±1° C., control potential before addition −70 to −78 mV. The text has this: Test 2: Membrane potential on isolated β cells
The mechanism of action of the hypoglycemic sulfonylureas such as, for example, glibenclamide has been elucidated in broad outline. The target organ of the sulfonylureas is the β cell of the pancreas, where they contribute to the release of the hypoglycemic hormone insulin by influencing the electrical potential of the cell membrane. A hypoglycemic sulfonylurea such as, for example, glibenclamide brings about a depolarization of the cell membrane, which leads to a […] influx of calcium ions and as a consequence of this to insulin release. The extent ΔU of this depolarization of the cell membrane by the test substances was determined on insulin-secreting RINm5F cells, a pancreas tumor cell line. The potency of a compound in this model predicts the extent of the […] potential of this compound.
Cell cultures of RINm5F cells: RINm5F cells were cultured at 37° C. in RPMI 1640 culture medium (Flow), to which 11 mmol/l of glucose, 10% (v/v) fetal calf serum, 2 mmol/l of glutamine and 50 μg/ml of gentamycin were added. The cells were inoculated onto petri dishes every 2 to 3 days and kept in a humidified atmosphere of […] and 5% CO2 at a temperature of 37° C. For the investigations, the cells were isolated by incubation (about 3 min) in a Ca^2+-free medium which contains 0.25% trypsin.
Measuring method: in a Plexiglas chamber, isolated RINm5F cells were applied to an inverted microscope which was equipped with differential interference contrast optics. Under visual control (400× magnification), a fire-polished micropipette having an opening diameter of approximately 1 μm was placed onto the cell with the aid of a micromanipulator. By applying a slight underpressure to the interior of the patch pipette, a high electrical seal between the glass and cell membrane was first produced. Then, by increasing the underpressure, the membrane spot under the measuring pipette was torn off. In this whole-cell configuration, the cell potential was recorded with the aid of a patch clamp amplifier (L/M EPC 7, List, Darmstadt) and the whole-cell current was measured by applying a voltage ramp. […] Stock solutions of the test substances in a concentration of 100 mmol/l in DMSO and corresponding dilutions in an NaCl solution were prepared. DMSO on its own had no effect on the cell potential. In order to stabilize the cell potential, diaxozide (100 μmol/l), an opener for ATP-sensitive K^+ channels, was added to the bath solution in all experiments. All experiments were carried out at 34±1° C.

Take `CNC(=S)NS(=O)(=O)c1cc(CCNC(=O)c2cc(Cl)ccc2OC)ccc1-c1ccccc1` [Example 1, 5-(2-(5-Chloro-2-methoxybenzamido)ethyl)-N-(methylaminothiocarbonyl)-2-phenylbenzenesulfonamide]: the “APD90 +HOE 234, 30 min., then +substance, 60 min.” value in data set [1] was determined as 134 milliseconds. Besides, the “ΔU (depolarization of the cell potential)” value in data set [2] amounted to 6 mV.

Compound `CCNC(=S)NS(=O)(=O)c1cc(CCNC(=O)c2cc(Cl)ccc2OC)ccc1-c1ccccc1` [Example 3, 5-(2-(5-Chloro-2-methoxybenzamido)ethyl)-N-(ethylaminothiocarbonyl)-2-phenylbenzenesulfonamide] showed a melting point of 168 to 170 °C. For the compound `CCNC(=O)NS(=O)(=O)c1cc(CCNC(=O)c2cc(Cl)ccc2OC)ccc1-c1ccccc1` [Example 4, 5-(2-(5-Chloro-2-methoxybenzamido)ethyl)-N-(ethylaminocarbonyl)-2-phenylbenzenesulfonamide], the “APD90 +HOE 234, 30 min., then +substance, 60 min.” value in data set [1] was 81 milliseconds.

On to `CNC(=S)NS(=O)(=O)c1cc(CCNC(=O)c2cc(Cl)ccc2OC)ccc1-c1ccc(F)cc1` [Example 7, 5-(2-(5-Chloro-2-methoxybenzamido)ethyl)-2-(4-fluorophenyl)-N-(methyl-aminothiocarbonyl)benzenesulfonamide], for which the “APD90 +HOE 234, 30 min., then +substance, 60 min.” value in data set [1] amounted to 71 milliseconds. In turn, `CNC(=S)NS(=O)(=O)c1cc(CCNC(=O)c2cc(Cl)ccc2OC)ccc1-c1ccc(Cl)cc1` [Example 8, 5-(2-(5-Chloro-2-methoxybenzamido)ethyl)-2-(4-chlorophenyl)-N-(methyl-aminothiocarbonyl)benzenesulfonamide] gave a melting point of 189 to 192 °C. The compound `CNC(=S)NS(=O)(=O)c1cc(CCNC(=O)c2cc(Cl)ccc2OC)ccc1-c1ccc(OC)cc1` [Example 9, 5-(2-(5-Chloro-2-methoxybenzamido)ethyl)-2-(4-methoxyphenyl)-N-(methylaminothiocarbonyl)benzenesulfonamide] registered a melting point of 185 to 188 °C. Besides, in data set [2], the “ΔU (depolarization of the cell potential)” value stood at 15 mV. As to `CCNC(=S)NS(=O)(=O)c1cc(CCNC(=O)c2cc(Cl)ccc2OC)ccc1-c1ccc(SC)cc1` [Example 10, 5-(2-(5-Chloro-2-methoxybenzamido)ethyl)-N-(ethylaminothiocarbonyl)-2-(4-methylthiophenyl)benzenesulfonamide], the melting point lay in the range of 178 to 179 °C. For the compound `CNC(=S)NS(=O)(=O)c1cc(CCNC(=O)c2cc(Cl)ccc2OC)ccc1-c1cccs1` [Example 12, 5-(2-(5-Chloro-2-methoxybenzamido)ethyl)-N-(methylaminothiocarbonyl)-2-(2-thienyl)benzenesulfonamide], the melting point lay in the range of 189 to 191 °C. The “ΔU (depolarization of the cell potential)” value in data set [2] amounted to 5 mV.

Take `CNC(=O)NS(=O)(=O)c1cc(CCNC(=O)c2cc(Cl)ccc2OC)ccc1-c1cccs1` [Example 13, 5-(2-(5-Chloro-2-methoxybenzamido)ethyl)-N-(methylaminocarbonyl)-2-(2-thienyl)benzenesulfonamide]: the “APD90 +HOE 234, 30 min., then +substance, 60 min.” value in data set [1] is on record as 72 milliseconds. For `CNC(=S)NS(=O)(=O)c1cc(CCNC(=O)c2cc(Cl)ccc2OC)ccc1-c1ccco1` [Example 14, 5-(2-(5-Chloro-2-methoxybenzamido)ethyl)-2-(2-furyl)-N-(methylaminothiocarbonyl)benzenesulfonamide], the melting point was 145 to 146 °C. Besides, the “ΔU (depolarization of the cell potential)” value in data set [2] is on record as 7 mV.

For the compound `CNC(=O)NS(=O)(=O)c1cc(CCNC(=O)c2cc(Cl)ccc2OC)ccc1-c1ccco1` [Example 15, 5-(2-(5-Chloro-2-methoxybenzamido)ethyl)-2-(2-furyl)-N-(methylaminocarbonyl)benzenesulfonamide], in data set [1], the “APD90 +HOE 234, 30 min., then +substance, 60 min.” value is 83 milliseconds.

With `CNC(=S)NS(=O)(=O)c1cc(CCNC(=O)c2cc(Cl)ccc2OC)ccc1-c1ccccn1` [Example 16, 5-(2-(5-Chloro-2-methoxybenzamido)ethyl)-N-(methylaminothiocarbonyl)-2-(2-pyridyl)benzenesulfonamide], in data set [1], the “APD90 +HOE 234, 30 min., then +substance, 60 min.” value turned out to be 153 milliseconds.

In turn, `CNC(=O)NS(=O)(=O)c1cc(CCNC(=O)c2cc(Cl)ccc2OC)ccc1-c1ccccn1` [Example 17, 5-(2-(5-Chloro-2-methoxybenzamido)ethyl)-N-(methylaminocarbonyl)-2-(2-pyridyl)benzenesulfonamide] registered a melting point of 160 °C. On to `C=CCc1ccc(CCNC(=O)c2cc(Cl)ccc2OC)cc1S(=O)(=O)NC(=O)NC` [Example 18, 2-Allyl-5-(2-(5-chloro-2-methoxybenzamido)ethyl)-N-(methylaminocarbonyl)benzenesulfonamide], for which the melting point lay within 124 to 126 °C. On the same count and under the same terms, the result for `C#Cc1ccc(CCNC(=O)c2cc(Cl)ccc2OC)cc1S(=O)(=O)NC(=S)NC` [Example 19, 5-(2-(5-Chloro-2-methoxybenzamido)ethyl)-2-ethynyl-N-(methylaminothiocarbonyl)benzenesulfonamide] reads 224 to 225 °C. In the case of `CNC(=S)NS(=O)(=O)c1cc(CCNC(=O)c2cc(Cl)ccc2OC)ccc1Sc1ccccc1` [Example 20, 5-(2-(5-Chloro-2-methoxybenzamido)ethyl)-N-(methylaminothiocarbonyl)-2-(phenylsulfanyl)benzenesulfonamide], the “APD90 +HOE 234, 30 min., then +substance, 60 min.” value in data set [1] is on record as 139 milliseconds. As to `COc1ccc(Cl)cc1C(=O)NCCc1ccc(S(=O)(=O)NC(=O)NC2CCCCC2)cc1` [Glibenclamide, reference compound], the “ΔU (depolarization of the cell potential)” value in data set [2] is given as 47 mV.
